Experimental data taken from patent US10881642B2, “Autophagy enhancer and use thereof” (Industry-Academic Cooperation Foundation, Yonsei University, priority 2016, dated 2021).

System: HeLa cells
Assay: Acridine orange staining of acidic vesicular organelles
Type: cell-based
Details: 24 hrs
Experimental: FIG. 3A is the graph showing the percentage of nuclear translocated TFEB for which TFEB-GFP HeLa cells were treated with MSL compound for 4 hrs and then nuclei of the cells were stained with DAPI. FIG. 3B is the results of the experiments in which HeLa cells were incubated in the presence of MSL compound or vehicle control for 24 hrs and then the acidic vesicular organelles formed were stained with acridine orange. FIG. 3C is the results of the experiments in which TFEB-GFP HeLa cells were treated with MSL compound or vehicle control for 4 hrs and then the cells were immunoblotted with the antibodies indicated. […]
Screening of autophagy enhancer. […] Firefly luciferase was determined after mixing 5 μl of lysate with 25 μl of Luciferase Assay Reagent II. Renilla luciferase was then determined after further addition of 20 ul of Stop&Glo Reagent. […] Cytotoxicity was determined by the measurement of LDH release in cell culture media using the LDH kit (Roche), according to the protocol from the manufacturer. […] Imaging and image quantification. […] Formation of acidic vesicular organelles was quantitated by staining the cells with acridine orange (Invitrogen, 5 ug/ml, 10 min). […] Cells or tissues were solubilized in lysis buffer supplemented with protease and phosphatase inhibitors and protein concentration was measured by the Bradford method. […] Protein levels were quantified by using ImageJ software analysis. […]

CSc1oc(-c2ccccc2)nc1S(=O)(=O)c1ccc(F)cc1 [MSL]
red fluorescence after acridine orange staining (lysosomal acidification and content): significantly increased
